Reference: article PMC11952846, “The sterol-regulating human ARV1 binds cholesterol and phospholipids through its conserved ARV1 homology domain” (The Journal of Biological Chemistry, 2025)
Positions count from the first letter of the chain named.

Assays:
[1] = target: T1, GST-ARV1-N98 C34/C37A (Homo sapiens, UniProt Q9H2C2, C34A/C37A); experiment: Liposome binding assay, site-directed mutant; details: PC:PL, sulfatide or PI(4)P liposomes
T1 construct: Expresses amino-terminal 98 amino acids of ARV1; made in house; host or cells: E. coli BL21 (pGEX-4T1)
T1 sequence (Q9H2C2 1-98 C34A/C37A): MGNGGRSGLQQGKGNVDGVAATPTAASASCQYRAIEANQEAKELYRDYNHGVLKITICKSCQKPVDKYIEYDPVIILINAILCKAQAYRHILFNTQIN
Method: Lyophilized lipids were reconstituted in chloroform at 10 mg/ml and stored in glass tubes with Teflon tops at −20 °C until use. One milliliter of 10 mg/ml stock was dried under a stream of nitrogen in a glass tube until a lipid cake/film was formed. The lipid cake was then rehydrated in BLT rehydration buffer (5 mM Tris/HCl, pH 7.4, containing 150 mM NaCl) to a concentration of 1 mg/ml. Lipid suspensions were subjected to three freeze/thaw cycles using a dry ice ethanol/[…] water bath to encapsulate the buffer and improve liposome formation. The suspension and lipid extruder were equilibrated to temperature for 10 min and liposomes were extruded using […] polycarbonate membranes (Avestin). Liposomes were made by mixing stock lipid PL (1 mg/ml) with PC (10 mg/ml).
Sulfatide liposomes were generated as previously described ([94]). All lipids were resuspended in organic solvents as per manufacturer’s instructions. Liposomes were prepared with mixing PC:PE:cholesterol:sulfatides (1:1:1:4) and subsequently dried down by lyophilization to obtain lipid films. Lipids were hydrated in 20 mM Tris–HCL, pH 6.8, containing 100 mM NaCl at a concentration of 1 mg/ml.
PI(4)P liposomes were generated as described by Knodler et al. ([95]), with some modifications. Briefly, liposomes were generated at a lipid concentration of 10 mg/ml. Liposomes contained PC (60%), PI (30%), PE (8%), and PI(4)P (2%). Lipid solution was dried down and resuspended in liposome buffer (20 mM Hepes–HCL, pH 7.4, containing 1 mM EDTA and 50 mM potassium acetate). Liposomes were formed by sonication on ice.
Liposomes were serial diluted in floatation buffer (100 mM NaCl, 2 mM EDTA, pH 5.5) to a final concentration of 0.1 mg/ml. Nine hundred microliters of liposome solution was placed in clear ultracentrifuge tubes and mixed with 100 μl of 0.01 μg/ml of protein. The liposome/protein solution was incubated at room temperature for 1 h with occasional shaking. An initial 100 μl of liposome/protein solution (liposomes) was removed and the remaining 900 μl was centrifuged at 50,000g for 20 min at 4 °C. The pellet was resuspended in 800 μl of fresh floatation buffer, centrifuged as above, and 800 μl of supernatant was removed (wash 1). This was repeated a second time and again 800 μl of supernatant was removed (wash 2). The final pellet was resuspended in 100 μl of floatation buffer plus SDS treatment buffer (pellet). Thirty microliters of each fraction was run on a 15% SDS-PAGE gel and probed with an anti-GST monoclonal antibody at a 1:1500 dilution.

[2] = target: T2, GST-ARV1-N70 (Homo sapiens, UniProt Q9H2C2); experiment: Lipid overlay far western, truncation; assay type: binding; details: compared to ARV1-N98
T2 construct: Expresses amino-terminal 70 amino acids of ARV1; made in house; host or cells: E. coli BL21 (pGEX-4T1)
T2 sequence (Q9H2C2 1-70): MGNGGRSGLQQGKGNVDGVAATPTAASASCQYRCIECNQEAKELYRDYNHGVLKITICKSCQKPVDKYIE
How it was run: (§1)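 Binding of GST- or His-tagged proteins (0.5 μg/ml, 1 h, room temperature, 0.1% Triton X-100 present) to immobilized lipids is visualized by anti-tag immunodetection and chemiluminescence.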

[3] = target: T3, 6XHIS-ARV1-N98 K54/K59A (Homo sapiens, UniProt Q9H2C2, K54A/K59A); experiment: Lipid overlay far western, site-directed mutant; assay type: binding; details: compared to the ARV1-N98 protein
T3 construct: Expressing amino-terminal 98 amino acids of ARV1; made in house; host or cells: E. coli BL21 (pET-28a(+))
T3 sequence (Q9H2C2 1-98 K54A/K59A): T1 sequence (Q9H2C2 1-98 C34A/C37A) with A34C, A37C, K54A, K59A
How it was run: as §1

[4] = target: T4, 6XHIS-ARV1-N98 D72A (Homo sapiens, UniProt Q9H2C2, D72A); experiment: Lipid overlay far western, site-directed mutant; assay type: binding; details: compared to the ARV1-N98 protein
T4 construct: Expressing amino-terminal 98 amino acids of ARV1; made in house; host or cells: E. coli BL21 (pET-28a(+))
How it was run: as §1

[5] = target: T5, 6XHIS-ARV1-N98 C58/C61A (Homo sapiens, UniProt Q9H2C2, C58A/C61A); experiment: Lipid overlay far western, site-directed mutant; assay type: binding; details: compared to the ARV1-N98 protein
T5 construct: Expressing amino-terminal 98 amino acids of ARV1; made in house; host or cells: E. coli BL21 (pET-28a(+))
T5 sequence (Q9H2C2 1-98 C58A/C61A): T1 sequence (Q9H2C2 1-98 C34A/C37A) with A34C, A37C, C58A, C61A
How it was run: as §1

[6] = target: T6, 6XHIS-ARV1-N98 N94Q (Homo sapiens, UniProt Q9H2C2, N94Q); experiment: Lipid overlay far western, site-directed mutant; assay type: binding; details: compared to the ARV1-N98 protein
T6 construct: Expressing amino-terminal 98 amino acids of ARV1; made in house; host or cells: E. coli BL21 (pET-28a(+))
T6 sequence (Q9H2C2 1-98 N94Q): T1 sequence (Q9H2C2 1-98 C34A/C37A) with A34C, A37C, N94Q
How it was run: as §1

[7] = target: T7, 6XHIS-ARV1-N98 E70A (Homo sapiens, UniProt Q9H2C2, E70A); experiment: Lipid overlay far western, site-directed mutant; assay type: binding; details: compared to the ARV1-N98 protein
T7 construct: Expressing amino-terminal 98 amino acids of ARV1; made in house; host or cells: E. coli BL21 (pET-28a(+))
How it was run: as §1

T4 sequence (Q9H2C2 1-98 D72A): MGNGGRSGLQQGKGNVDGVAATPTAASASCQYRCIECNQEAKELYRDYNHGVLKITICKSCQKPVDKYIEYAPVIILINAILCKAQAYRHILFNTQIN
T7 sequence (Q9H2C2 1-98 E70A): as the sequence (Q9H2C2 1-98 D72A) above, with E70A, A72D counted along it

Structure (SMILES)	liposome binding [1]	change of lipid-protein interaction [2]	change of lipid-protein interaction [3]	change of lipid-protein interaction [4]	change of lipid-protein interaction [5]	change of lipid-protein interaction [6]	change of lipid-protein interaction [7]
CCCCCC(=O)O[C@H](COC(=O)CCCCCNC(=O)CCCC[C@@H]1SC[C@@H]2NC(=O)N[C@@H]21)COP(=O)(O)O[C@H]1[C@H](O)[C@@H](O)[C@H](OP(=O)(O)O)[C@@H](O)[C@H]1O [reference compound]	bound	enhanced	increasing the interaction				
CCCCCCCC/C=C\CCCCCCCC(=O)OC[C@H](COP(=O)(O)OCC(O)CO)OC(=O)CCCCCCC/C=C\CCCCCCCC (stereo partly drawn) [PG, phosphatidylglycerol]	not		abolished	weakened	weakened or eliminated	more strongly	weakened
CCCCCCCCCCCCCCCCCC(=O)OC[C@H](COP(=O)(O)OC[C@H](N)C(=O)O)OC(=O)CCCCCCCCCCCCCCCCC [PS, phosphatidylserine]		reduced interactions			enhanced		
CCCCCCCCCCCCCCCC(=O)OC[C@H](COP(=O)(O)O)OC(=O)CCCCCCCCCCCCCCC [PA, phosphatidic acid]	bound						
CCCCC/C=C\C/C=C\CCCCCCCC(=O)OC[C@H](COP(=O)(O)OCC(O)COP(=O)(O)OC[C@@H](COC(=O)CCCCCCC/C=C\C/C=C\CCCCC)OC(=O)CCCCCCC/C=C\C/C=C\CCCCC)OC(=O)CCCCCCC/C=C\C/C=C\CCCCC (stereo partly drawn) [CL, cardiolipin]				weakened		more strongly	weakened
